Values of other authors, collected in patent publication US12213962B2, “Drug resistant immunotherapy for treatment of a cancer” (Emory University, priority 2009, dated 2025).

System: AG104 sarcoma cells
Details: mice transplanted with non-modified, TMTX-sensitive cells

COc1cc(NCc2ccc3nc(N)nc(N)c3c2C)cc(OC)c1OC [TMTX, trimetrexate]
effect on efficacy of anti-CD137 antibody: reduced the efficacy
